In general, IC50 refers to the concentration that inhibits the measured activity by half.

The values below come from PubChem BioAssay AID743333 (Broad Institute, 2014).

Each structure is given as a SMILES string. Calls of active or inactive are those of the source.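 Rule for the calls: active = signal falls with dose and an IC50 can be fitted at or below twice the top valid tested dose; inconclusive = flat fit showing 30 to 70% loss, or poor fit; inactive = activity in the rising direction, plus the rest.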 Where only a bound is given, the exact number is not on record here.

Test system in the first assay: not listed separately
Briefly: A549 cell cytotoxicity, dose response, cytotoxicity control, plate reader, dry powder, set 8 (AID 743333). The note with it: A549 viability, CellTiter-Glo ATP luminescence, 72 h; at 15 µM (top of the series). In general terms: ATP-based viability assays read luminescence as a measure of living cells.
Consider `COc1ccc2nc(NC(=O)c3cc(S(=O)(=O)N(C)C)ccc3N3CCCC3)sc2c1`, for which the activity change, negative = cytotoxicity was -4.45% (inactive).

Consider `CN(C)S(=O)(=O)c1ccc(N2CCCC2)c(C(=O)Nc2ccccc2)c1`, for which the activity change, negative = cytotoxicity was -5.56% (inactive).

As to `Cc1cnc(NC(=O)c2cc(S(=O)(=O)N(C)C)ccc2N2CCCC2)s1`, the activity change, negative = cytotoxicity was -12% (inactive).

On to `CN(C)CCCN(Cc1cc2ccccc2[nH]c1=O)C(=O)NCc1ccccc1`, for which the activity change, negative = cytotoxicity is -4.79% (inactive).

Turning to `CN(C)S(=O)(=O)c1ccc(N2CCCC2)c(C(=O)Nc2nccs2)c1`, the activity change, negative = cytotoxicity was 1.36% (inactive).

As to `Cc1cnc(NC(=O)c2cc(S(=O)(=O)N3CCCCC3)ccc2N2CCCC2)s1`, the activity change, negative = cytotoxicity was 9.07% (inactive).

Turning to `Cc1cnc(NC(=O)c2cc(S(=O)(=O)N3CCOCC3)ccc2N2CCCC2)s1`, the activity change, negative = cytotoxicity was -9.98% (inactive).

Take `COc1ccc2sc(NC(=O)c3cc(S(=O)(=O)N(C)C)ccc3N3CCCC3)nc2c1`: the activity change, negative = cytotoxicity was 8.3% (inactive).

Take `Cc1cnc(NC(=O)c2cc(S(=O)(=O)N(C)C)ccc2N2CCC2)s1`: the activity change, negative = cytotoxicity is -8.88% (inactive).

`CN(C)CCCN(Cc1cc2ccccc2[nH]c1=O)C(=O)Nc1ccccc1`: the activity change, negative = cytotoxicity was 2.4% (inactive).

`Cc1cnc(NC(=O)c2cc(S(=O)(=O)N(C)C)ccc2C2CCCC2)s1`: the activity change, negative = cytotoxicity was 0.274% (inactive).

As for `Cc1cnc(NC(=O)c2cc(S(=O)(=O)N(C)C)ccc2N(C)C)s1`, the activity change, negative = cytotoxicity was -6.64% (inactive).

`Cc1cnc(NC(=O)c2cc(S(=O)(=O)N3CCCC3)ccc2N2CCCC2)s1`: the activity change, negative = cytotoxicity was 0.402% (inactive).

As for `Cc1csc(NC(=O)c2cc(S(=O)(=O)N(C)C)ccc2N2CCCC2)n1`, the activity change, negative = cytotoxicity was -6.7% (inactive).

`CN(C)S(=O)(=O)c1ccc(N2CCCC2)c(C(=O)Nc2cccc(F)c2)c1`: the activity change, negative = cytotoxicity was -8.14% (inactive).

On to `CN(C)S(=O)(=O)c1ccc(N2CCCC2)c(C(=O)Nc2nc3ccccc3s2)c1`, for which the activity change, negative = cytotoxicity was -13.7% (inactive).

Take `Cc1ccc(NC(=O)c2cc(S(=O)(=O)N(C)C)ccc2N2CCCC2)cc1`: the activity change, negative = cytotoxicity was -13.5% (inactive).

`COc1cccc2sc(NC(=O)c3cc(S(=O)(=O)N(C)C)ccc3N3CCCC3)nc12`: the activity change, negative = cytotoxicity is -2.59% (inactive).

In another assay the test system is A549 viability, CellTiter-Glo ATP luminescence, 72 h. Described as above.
Settings: not given
As to `CCN(CC)c1ccc(S(=O)(=O)N(C)C)cc1C(=O)Nc1ncc(C)s1`, the IC50 was > 30 µM (inactive).
